The values that follow come from patent US8952147B2, “Conjugates, preparation thereof, and therapeutic use thereof” (Sanofi, priority 2009, dated 2015).

Holding throughout (assay type): cell-based
One test relates to HCT116 cells. Put plainly: Inhibition of proliferation of HCT116 cells by the cytotoxic agents (14C-thymidine incorporation). Particulars: Homo sapiens, HCT-116, 3 days culture, 14C-thymidine incorporation at 96 hours. As for the experimental part:
(§1) Evaluation of the inhibition of proliferation of MDA-MB-231, MDA-A1 and HCT116 cell lines by the cytotoxic agents, study performed on the compounds of formula (II) of the type SZa with Za═SMe or of the type —C(═O)—ZbRb with ZbRb=OMe or OCH2—CH═CH2 The MDA-MB-231, MDA-A1 or HCT116 cells in their exponential growth phase are trypsinized and resuspended in their respective culture medium (DMEM/F12 Gibco #21331, 10% FCS Gibco #10500-056, […] Gibco #25030 for the MDA cells; DMEM Gibco #11960, 10% FCS Gibco #10500-056, 2 mM glutamine Gibco #25030 for the HCT116 cells). The cell suspension is seeded in Cytostar 96-well culture plates (GE Healthcare Europe, #RPNQ0163) in the whole culture medium containing serum at a density of 5000 cells/well (MDA-MB-231, MDA-A1, HCT116). After incubation for 4 hours, successive dilutions of the cryptophycin derivatives are added to the wells at concentrations decreasing from 10^−7 to 10^−12 M (in triplicate for each concentration). The cells are cultured for 3 days at 37° C. under an atmosphere containing 5% CO2 in the presence of the cytotoxic agents. On the 4th day, 10 μl of a ^14C-thymidine solution (0.1 μCi/well, Perkin Elmer #NEC56825000) are added to each well. The incorporation of ^14C-thymidine is measured 96 hours after the start of the experiment using a microbeta radioactivity counter (Perkin Elmer). The data are expressed in the form of a percentage of survival by determining the ratio between the reduced count obtained with the cells treated with cytotoxic agent and the count obtained with the cells of the control wells (treated with the culture medium alone).
(Dividing cells build labelled thymidine or BrdU into new DNA.)

A further test has as its system MDA-MB-231 cells. Put plainly: Inhibition of proliferation of MDA-MB-231 cells by the cytotoxic agents (14C-thymidine incorporation). Particulars: Homo sapiens, 3 days culture, 14C-thymidine incorporation at 96 hours. The method, then: as §1
In a further test the test system is MDA-A1 cells. The test can be described thus: Inhibition of proliferation of MDA-A1 cells by the cytotoxic agents (14C-thymidine incorporation). Particulars: 3 days culture, 14C-thymidine incorporation at 96 hours. As for the experimental part: as §1

As a reminder, the IC50 is the point on the concentration scale where inhibition reaches its midpoint. Read a high IC50 as lower potency. With `COc1ccc(C[C@H]2NC(=O)/C=C/C[C@@H]([C@H](C)[C@H]3O[C@@H]3c3ccc(CO)cc3)OC(=O)[C@H](CC(C)C)OC(=O)[C@H](C)CNC2=O)cc1Cl` [Compound 8, reference compound], the concentration for half-maximal inhibition (IC50) is 0.052 nM in the test with HCT116 cells, 0.104 nM in the test on MDA-MB-231 cells and 0.828 nM in the test on MDA-A1 cells.
As to `COc1ccc(C[C@H]2NC(=O)/C=C/C[C@@H]([C@H](C)[C@H]3O[C@@H]3c3ccc(CNCC(C)(C)SSC)cc3)OC(=O)[C@H](CC(C)C)OC(=O)C(C)(C)CNC2=O)cc1Cl` [Compound 13, (E)-(3S,10R,16S)-10-(3-Chloro-4-methoxybenzyl)-3-isobutyl-16-[(S)-1-((2R,3R)-3-{4-[(2-methyl-2-methyldisulfanylpropylamino)methyl]phenyl}oxiranyl)ethyl]-6,6-dimethyl-1,4-dioxa-8,11-diazacyclohexadec-13-ene-2,5,9,12-tetraone], the IC50 in the test on HCT116 cells turned out to be 0.336 nM; in the test on MDA-MB-231 cells, 0.529 nM; with MDA-A1 cells, 9.76 nM.
`C=CCOC(=O)CCOCCOCCOCCOCCNCc1ccc([C@H]2O[C@@H]2[C@@H](C)[C@@H]2C/C=C/C(=O)N[C@H](Cc3ccc(OC)c(Cl)c3)C(=O)NCC(C)(C)C(=O)O[C@@H](CC(C)C)C(=O)O2)cc1` [Compound 44, Allyl (2-{2-[2-(2-{4-[(2R,3R)-3-((S)-1-{(E)-(3S,10R,16S)-10-[3-chloro-4-methoxy-benzyl]-3-isobutyl-6,6-dimethyl-2,5,9,12-tetraoxo-1,4-dioxa-8,11-diazacyclohexadec-13-en-16-yl}ethyl)oxiranyl]benzylamino}ethoxy)ethoxy]ethoxy}ethoxy)propanoate]: the IC50 in the test on HCT116 cells is 0.135 nM; in the test with MDA-MB-231 cells it was 0.156 nM; in the test with MDA-A1 cells it was 15.6 nM.
The corresponding values for `COc1ccc(C[C@H]2NC(=O)/C=C/C[C@@H]([C@H](C)[C@@H]3O[C@H]3c3ccc(CO)cc3)OC(=O)[C@H](CC(C)C)OC(=O)C(C)(C)CNC2=O)cc1Cl` [Compound 57] are 1.13 nM, 1.19 nM and 29 nM.
For `COc1ccc(C[C@H]2NC(=O)/C=C/C[C@@H]([C@H](C)[C@H]3O[C@@H]3c3ccc(CN4CCN(C(=O)CCC(C)(C)SSC)CC4)cc3)OC(=O)[C@H](CC(C)C)OC(=O)C(C)(C)CNC2=O)cc1Cl` [Compound 7, (E)-(3S,10R,16S)-10-(3-Chloro-4-methoxybenzyl)-3-isobutyl-6,6-dimethyl-16-[(S)-1-((2R,3R)-3-{4-[4-(4-methyl-4-methyldisulfanylpentanoyl)piperazin-1-ylmethyl]phenyl}oxiranyl)-ethyl]-1,4-dioxa-8,11-diazacyclohexadec-13-ene-2,5,9,12-tetraone], the IC50 with HCT116 cells turned out to be 0.315 nM; in the test on MDA-MB-231 cells, 0.303 nM; in the test with MDA-A1 cells, 7.95 nM.
Turning to `COc1ccc(C[C@H]2NC(=O)/C=C/C[C@@H]([C@H](C)[C@H]3O[C@@H]3c3ccc(CN4CCN(CC(C)(C)SSC)CC4)cc3)OC(=O)[C@H](CC(C)C)OC(=O)C(C)(C)CNC2=O)cc1Cl` [Compound 19, (E)-(3S,10R,16S)-10-(3-Chloro-4-methoxybenzyl)-3-isobutyl-6,6-dimethyl-16-[(S)-1-((2R,3R)-3-{4-[4-(2-methyl-2-methyldisulfanylpropyl)piperazin-1-ylmethyl]phenyl}oxiranyl)ethyl]-1,4-dioxa-8,11-diazacyclohexadec-13-ene-2,5,9,12-tetraone], the figures for the IC50 in the test with HCT116 cells, in the test on MDA-MB-231 cells and in the test on MDA-A1 cells were 0.152 nM, 0.149 nM and 2.71 nM, respectively.
For the compound `C=CCOC(=O)CN1CCN(Cc2ccc([C@H]3O[C@@H]3[C@@H](C)[C@@H]3C/C=C/C(=O)N[C@H](Cc4ccc(OC)c(Cl)c4)C(=O)NCC(C)(C)C(=O)O[C@@H](CC(C)C)C(=O)O3)cc2)CC1` [Compound 40, Allyl (4-{4-[(2R,3R)-3-((S)-1-{(E)-(3S,10R,16S)-10-[3-chloro-4-methoxybenzyl]-3-isobutyl-6,6-dimethyl-2,5,9,12-tetraoxo-1,4-dioxa-8,11-diazacyclohexadec-13-en-16-yl}ethyl)-oxiranyl]benzyl}piperazin-1-yl)acetate], the half-inhibitory concentration (IC50) in the test with HCT116 cells was found to be 0.12 nM; with MDA-MB-231 cells it was 0.293 nM; in the test with MDA-A1 cells it was 1.58 nM.
For `COC(=O)CCCc1cn(Cc2ccc([C@H]3O[C@@H]3[C@@H](C)[C@@H]3C/C=C/C(=O)N[C@H](Cc4ccc(OC)c(Cl)c4)C(=O)NCC(C)(C)C(=O)O[C@@H](CC(C)C)C(=O)O3)cc2)nn1` [Compound 62, Methyl (1-{4-[(2R,3R)-3-((S)-1-{(E)-(3S,10R,16S)-10-[3-chloro-4-methoxybenzyl]-3-isobutyl-6,6-dimethyl-2,5,9,12-tetraoxo-1,4-dioxa-8,11-diazacyclohexadec-13-en-16-yl}ethyl)-oxiranyl]benzyl}-1H-1,2,3-triazol-4-yl)butanoate], the IC50 was 0.035 nM in the test on HCT116 cells, 0.095 nM with MDA-MB-231 cells and 10.9 nM in the test on MDA-A1 cells.
In the case of `COc1ccc(C[C@H]2NC(=O)/C=C/C[C@@H]([C@H](C)[C@H]3O[C@@H]3c3ccc(CN)cc3)OC(=O)[C@H](CC(C)C)OC(=O)C(C)(C)CNC2=O)cc1Cl` [Compound 77, (E)-(3S,10R,16S)-16-{(S)-1-[(2R,3R)-3-(4-Aminomethylphenyl)oxiranyl]ethyl}-10-(3-chloro-4-methoxybenzyl)-3-isobutyl-6,6-dimethyl-1,4-dioxa-8,11-diazacyclohexadec-13-ene-2,5,9,12-tetraone], the IC50 with HCT116 cells worked out at 0.105 nM; in the test on MDA-MB-231 cells, 0.17 nM; in the test with MDA-A1 cells it was 15.1 nM.
With `COc1ccc(C[C@H]2NC(=O)/C=C/C[C@@H]([C@H](C)[C@H]3O[C@@H]3c3ccc(CO)cc3)OC(=O)[C@H](CC(C)C)OC(=O)C(C)(C)CNC2=O)cc1Cl` [Compound 1, reference compound], the IC50 in the test on HCT116 cells was 0.032 nM; in the test on MDA-MB-231 cells, 0.041 nM; in the test on MDA-A1 cells, 1.07 nM.
As for `COc1ccc(C[C@H]2NC(=O)/C=C/C[C@@H]([C@H](C)[C@H]3O[C@@H]3c3ccc(CN(C)CCOCCOCCOCCN(C)CC(C)(C)SSC)cc3)OC(=O)[C@H](CC(C)C)OC(=O)C(C)(C)CNC2=O)cc1Cl` [Compound 30], the IC50 is 0.031 nM in the test with HCT116 cells, 0.03 nM in the test with MDA-MB-231 cells and 11.9 nM in the test on MDA-A1 cells.
